According to patent US6525001B1, “Substituted pyrimidine and pyridine herbicides” (Mid-American Commercialization Corporation, priority 1997, dated 2003):

What was measured:
Type in all cases: in vivo
Design in all cases: key: 0 is no effect; 10 is complete control
[1] = system: bedstraw (Galium aparine); assay: Test B pre-/postemergence; conditions: Postemergence
Source text: (§1) Seeds of bedstraw (Galium aparine), blackgrass (Alopecurus myosuroides), broadleaf signalgrass (Brachiaria decumbens), cocklebur (Xanthium strumarium), corn (Zea mays), crabgrass (Digitaria sanguinalis), giant foxtail (Setaria faberii), lambsquarters (Chenopodium album), momingglory (Ipomoea hederacea), pigweed (Amaranthus retroflexus), rape (Brassica napus), soybean (Glycine max), sugar beet (Beta vulgaris), velvetleaf (Abutilon theophrasti), wheat (Triticum aestivum), wild oat (Avena fatua) and purple nutsedge (Cyperus rotundus) tubers were planted and treated preemergence with test chemicals formulated in a non-phytotoxic solvent mixture which included a surfactant.
(§2) At the same time, these crop and weed species were also treated with postemergence applications of test chemicals formulated in the same manner. Plants ranged in height from 2 to 18 cm (1- to 4-leaf stage) for postemergence treatments. Plant species in the flood test consisted of rice (Oryza sativa), smallflower flatsedge (Cyperus difformis), duck salad (Heteranthera limosa) and bamyardgrass (Echinochloa crus-galli) grown to the 2-leaf stage for testing. Treated plants and controls were maintained in a greenhouse for twelve to sixteen days, after which all species were compared to controls and visually evaluated. Plant response ratings, summarized in Table B, are based on a scale of 0 to 10 where 0 is no effect and 10 is complete control. A dash (−) response means no test result.

[2] = system: blackgrass (Alopecurus myosuroides); assay: Test B pre-/postemergence
Source text: as §1, §2

[3] = system: broadleaf signalgrass (Brachiaria decumbens); assay: Test B pre-/postemergence
Source text: as §1, §2

[4] = system: cocklebur (Xanthium strumarium); assay: Test B pre-/postemergence
Source text: as §1, §2

corn (Zea mays) = assay: Test B pre-/postemergence
Source text: as §1, §2

[5] = system: crabgrass (Digitaria sanguinalis); assay: Test B pre-/postemergence
Source text: as §1, §2

[6] = system: giant foxtail (Setaria faberii); assay: Test B pre-/postemergence
Source text: as §1, §2

[7] = system: momingglory (Ipomoea hederacea); assay: Test B pre-/postemergence
Source text: as §1, §2

[8] = system: pigweed (Amaranthus retroflexus); assay: Test B pre-/postemergence
Source text: as §1, §2

[9] = system: purple nutsedge (Cyperus rotundus); assay: Test B pre-/postemergence; conditions: Preemergence
Source text: as §1, §2

rape (Brassica napus) = assay: Test B pre-/postemergence
Source text: as §1, §2

soybean (Glycine max) = assay: Test B pre-/postemergence
Source text: as §1, §2

[10] = system: sugar beet (Beta vulgaris); assay: Test B pre-/postemergence
Source text: as §1, §2

[11] = system: velvetleaf (Abutilon theophrasti); assay: Test B pre-/postemergence
Source text: as §1, §2

[12] = system: wheat (Triticum aestivum); assay: Test B pre-/postemergence
Source text: as §1, §2

wild oat (Avena fatua) = assay: Test B pre-/postemergence
Source text: as §1, §2

[13] = system: bamyardgrass (Echinochloa crus-galli); assay: Test B flood test
Summary of the method: (§3)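 Each value is a visual injury score relative to controls, with 10 meaning complete control and 0 no effect. Evaluation took place twelve to sixteen days after the 2-leaf-stage plants were treated and kept in the greenhouse.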

[14] = system: duck salad (Heteranthera limosa); assay: Test B flood test
Summary of the method: as §3

rice (Oryza sativa) = assay: Test B flood test
Summary of the method: as §3

[15] = system: smallflower flatsedge (Cyperus difformis); assay: Test B flood test
Summary of the method: as §3

[16] = Preemergence, Rate 62 g/ha, scale of 0 to 10
[17] = Rate 62 g/ha, Postemergence (flood test)
[18] = Rate 125 g/ha, Postemergence section (flood test species)
[19] = Rate 250 g/ha, Postemergence (flood test species)

Q: How did the “Bedstraw plant response rating” value ([1]; Rate 62 g/ha) turn out when `O=C(c1cccc(C(F)(F)F)c1)c1ccnc(-c2ccc(F)cc2F)n1` [Compound 76] was run?
A: 0

Q: What about the “Bedstraw plant response rating” value ([1]; Rate 125 g/ha) of the same molecule?
A: 0

Q: What about the “Plant response rating, Bedstraw” value ([1]; Rate 250 g/ha) of the same molecule?
A: 0

Q: What about the “Plant response rating, Blackgrass” value [2, 16] of the same molecule?
A: 0

Q: What about the “Blackgrass plant response rating” value ([2]; Rate 62 g/ha, Postemergence) of the same molecule?
A: 0

Q: What about the “Blackgrass plant response rating” value ([2]; Rate 125 g/ha, Postemergence) of the same molecule?
A: 0

Q: What about the “Plant response rating, Blackgrass” value ([2]; Rate 125 g/ha, Preemergence) of the same molecule?
A: 0

Q: And the “Plant response rating, Blackgrass” value ([2]; Rate 250 g/ha, Postemergence)?
A: 0

Q: And the “Plant response rating, Blackgrass” value ([2]; Rate 250 g/ha, Preemergence)?
A: 0

Q: What about the “B. signalgrass plant response rating” value ([3]; Rate 62 g/ha, Postemergence) of the same molecule?
A: 0

Q: And the “B. signalgrass plant response rating” value ([3]; Rate 62 g/ha, Preemergence)?
A: 0

Q: And the “B. signalgrass plant response rating” value ([3]; Rate 125 g/ha, Postemergence)?
A: 0

Q: What about the “Plant response rating, B. signalgrass” value ([3]; Rate 125 g/ha, Preemergence) of the same molecule?
A: 0

Q: And the “Plant response rating, B. signalgrass” value ([3]; Rate 250 g/ha, Postemergence)?
A: 0

Q: And the “Plant response rating, B. signalgrass” value ([3]; Rate 250 g/ha, Preemergence)?
A: 0

Q: What about the “Plant response rating, Cocklebur” value [4, 16] of the same molecule?
A: 0

Q: And the “Cocklebur plant response rating” value ([4]; Rate 62 g/ha, Postemergence)?
A: 1

Q: What about the “Cocklebur plant response rating” value ([4]; Rate 125 g/ha, Postemergence) of the same molecule?
A: 3

Q: What about the “Plant response rating, Cocklebur” value ([4]; Rate 125 g/ha, Preemergence) of the same molecule?
A: 0

Q: And the “Plant response rating, Cocklebur” value ([4]; Rate 250 g/ha, Postemergence)?
A: 4

Q: What about the “Plant response rating, Cocklebur” value ([4]; Rate 250 g/ha, Preemergence) of the same molecule?
A: 0

Q: What about the “Plant response rating, Corn” value (corn (Zea mays); [16]) of the same molecule?
A: 0

Q: And the “Corn plant response rating” value (corn (Zea mays); Rate 62 g/ha, Postemergence)?
A: 1

Q: And the “Corn plant response rating” value (corn (Zea mays); Rate 125 g/ha, Postemergence)?
A: 1

Q: What about the “Plant response rating, Corn” value (corn (Zea mays); Rate 125 g/ha, Preemergence) of the same molecule?
A: 0

Q: And the “Plant response rating, Corn” value (corn (Zea mays); Rate 250 g/ha, Postemergence)?
A: 1

Q: And the “Plant response rating, Corn” value (corn (Zea mays); Rate 250 g/ha, Preemergence)?
A: 0

Q: What about the “Plant response rating, Crabgrass” value [5, 16] of the same molecule?
A: 0

Q: And the “Crabgrass plant response rating” value ([5]; Rate 62 g/ha, Postemergence)?
A: 0

Q: What about the “Crabgrass plant response rating” value ([5]; Rate 125 g/ha, Postemergence) of the same molecule?
A: 0

Q: What about the “Plant response rating, Crabgrass” value ([5]; Rate 125 g/ha, Preemergence) of the same molecule?
A: 0

Q: What about the “Plant response rating, Crabgrass” value ([5]; Rate 250 g/ha, Postemergence) of the same molecule?
A: 1

Q: And the “Plant response rating, Crabgrass” value ([5]; Rate 250 g/ha, Preemergence)?
A: 0

Q: And the “Plant response rating, Giant foxtail” value [6, 16]?
A: 0

Q: What about the “Giant foxtail plant response rating” value ([6]; Rate 62 g/ha, Postemergence) of the same molecule?
A: 0

Q: And the “Giant foxtail plant response rating” value ([6]; Rate 125 g/ha, Postemergence)?
A: 0

Q: And the “Plant response rating, Giant foxtail” value ([6]; Rate 125 g/ha, Preemergence)?
A: 0

Q: What about the “Plant response rating, Giant foxtail” value ([6]; Rate 250 g/ha, Postemergence) of the same molecule?
A: 1

Q: And the “Plant response rating, Giant foxtail” value ([6]; Rate 250 g/ha, Preemergence)?
A: 0

Q: And the “Plant response rating, Morningglory” value [7, 16]?
A: 0

Q: And the “Morningglory plant response rating” value ([7]; Rate 62 g/ha, Postemergence)?
A: 0

Q: What about the “Morningglory plant response rating” value ([7]; Rate 125 g/ha, Postemergence) of the same molecule?
A: 0

Q: What about the “Plant response rating, Morningglory” value ([7]; Rate 125 g/ha, Preemergence) of the same molecule?
A: 0

Q: What about the “Plant response rating, Morningglory” value ([7]; Rate 250 g/ha, Postemergence) of the same molecule?
A: 1

Q: What about the “Plant response rating, Morningglory” value ([7]; Rate 250 g/ha, Preemergence) of the same molecule?
A: 0

Q: And the “Plant response rating, Redroot pigweed” value [8, 16]?
A: 0

Q: What about the “Redroot pigweed plant response rating” value ([8]; Rate 62 g/ha, Postemergence) of the same molecule?
A: 1

Q: And the “Redroot pigweed plant response rating” value ([8]; Rate 125 g/ha, Postemergence)?
A: 1

Q: What about the “Plant response rating, Redroot pigweed” value ([8]; Rate 125 g/ha, Preemergence) of the same molecule?
A: 0

Q: What about the “Plant response rating, Redroot pigweed” value ([8]; Rate 250 g/ha, Postemergence) of the same molecule?
A: 2

Q: And the “Plant response rating, Redroot pigweed” value ([8]; Rate 250 g/ha, Preemergence)?
A: 0

Q: What about the “Plant response rating, Nutsedge” value ([9]; Rate 62 g/ha, scale of 0 to 10) of the same molecule?
A: 0

Q: And the “Plant response rating, Nutsedge” value ([9]; Rate 125 g/ha)?
A: 0

Q: What about the “Plant response rating, Rape” value (rape (Brassica napus); [16]) of the same molecule?
A: 0

Q: What about the “Rape plant response rating” value (rape (Brassica napus); Rate 62 g/ha, Postemergence) of the same molecule?
A: 1

Q: What about the “Rape plant response rating” value (rape (Brassica napus); Rate 125 g/ha, Postemergence) of the same molecule?
A: 2

Q: What about the “Plant response rating, Rape” value (rape (Brassica napus); Rate 125 g/ha, Preemergence) of the same molecule?
A: 0

Q: And the “Plant response rating, Rape” value (rape (Brassica napus); Rate 250 g/ha, Postemergence)?
A: 2

Q: What about the “Plant response rating, Rape” value (rape (Brassica napus); Rate 250 g/ha, Preemergence) of the same molecule?
A: 0

Q: And the “Plant response rating, Soybean” value (soybean (Glycine max); [16])?
A: 0

Q: And the “Soybean plant response rating” value (soybean (Glycine max); Rate 62 g/ha, Postemergence)?
A: 0

Q: What about the “Soybean plant response rating” value (soybean (Glycine max); Rate 125 g/ha, Postemergence) of the same molecule?
A: 0

Q: And the “Plant response rating, Soybean” value (soybean (Glycine max); Rate 125 g/ha, Preemergence)?
A: 0

Q: What about the “Plant response rating, Soybean” value (soybean (Glycine max); Rate 250 g/ha, Postemergence) of the same molecule?
A: 1

Q: And the “Plant response rating, Soybean” value (soybean (Glycine max); Rate 250 g/ha, Preemergence)?
A: 0

Q: What about the “Plant response rating, Sugarbeets” value [10, 16] of the same molecule?
A: 0

Q: And the “Sugarbeets plant response rating” value ([10]; Rate 62 g/ha, Postemergence)?
A: 1

Q: What about the “Sugarbeets plant response rating” value ([10]; Rate 125 g/ha, Postemergence) of the same molecule?
A: 2

Q: What about the “Plant response rating, Sugarbeets” value ([10]; Rate 125 g/ha, Preemergence) of the same molecule?
A: 0

Q: And the “Plant response rating, Sugarbeets” value ([10]; Rate 250 g/ha, Postemergence)?
A: 3

Q: What about the “Plant response rating, Sugarbeets” value ([10]; Rate 250 g/ha, Preemergence) of the same molecule?
A: 0

Q: And the “Plant response rating, Velvetleaf” value [11, 16]?
A: 0

Q: What about the “Velvetleaf plant response rating” value ([11]; Rate 62 g/ha, Postemergence) of the same molecule?
A: 0

Q: And the “Velvetleaf plant response rating” value ([11]; Rate 125 g/ha, Postemergence)?
A: 1

Q: What about the “Plant response rating, Velvetleaf” value ([11]; Rate 125 g/ha, Preemergence) of the same molecule?
A: 0

Q: And the “Plant response rating, Velvetleaf” value ([11]; Rate 250 g/ha, Postemergence)?
A: 1

Q: What about the “Plant response rating, Velvetleaf” value ([11]; Rate 250 g/ha, Preemergence) of the same molecule?
A: 0

Q: What about the “Plant response rating, Wheat” value [12, 16] of the same molecule?
A: 0

Q: And the “Wheat plant response rating” value ([12]; Rate 62 g/ha, Postemergence)?
A: 0

Q: And the “Wheat plant response rating” value ([12]; Rate 125 g/ha, Postemergence)?
A: 0

Q: What about the “Plant response rating, Wheat” value ([12]; Rate 125 g/ha, Preemergence) of the same molecule?
A: 0

Q: And the “Plant response rating, Wheat” value ([12]; Rate 250 g/ha, Postemergence)?
A: 0

Q: What about the “Plant response rating, Wheat” value ([12]; Rate 250 g/ha, Preemergence) of the same molecule?
A: 0

Q: And the “Plant response rating, Wild oats” value (wild oat (Avena fatua); [16])?
A: 0

Q: And the “Wild oats plant response rating” value (wild oat (Avena fatua); Rate 62 g/ha, Postemergence)?
A: 0

Q: And the “Wild oats plant response rating” value (wild oat (Avena fatua); Rate 125 g/ha, Postemergence)?
A: 0

Q: What about the “Plant response rating, Wild oats” value (wild oat (Avena fatua); Rate 125 g/ha, Preemergence) of the same molecule?
A: 0

Q: And the “Plant response rating, Wild oats” value (wild oat (Avena fatua); Rate 250 g/ha, Postemergence)?
A: 0

Q: And the “Plant response rating, Wild oats” value (wild oat (Avena fatua); Rate 250 g/ha, Preemergence)?
A: 0

Q: And the “Barnyardgrass plant response rating” value [13, 17]?
A: 0

Q: And the “Barnyardgrass plant response rating” value [13, 18]?
A: 0

Q: And the “Plant response rating, Barnyardgrass” value [13, 19]?
A: 0

Q: And the “Ducksalad plant response rating” value [14, 17]?
A: 0

Q: And the “Ducksalad plant response rating” value [14, 18]?
A: 0

Q: And the “Plant response rating, Ducksalad” value [14, 19]?
A: 0

Q: And the “Rice plant response rating” value (rice (Oryza sativa); [17])?
A: 0

Q: And the “Rice plant response rating” value (rice (Oryza sativa); [18])?
A: 0

Q: And the “Plant response rating, Rice” value (rice (Oryza sativa); [19])?
A: 0

Q: What about the “S. Flatsedge plant response rating” value [15, 17] of the same molecule?
A: 0

Q: And the “S. Flatsedge plant response rating” value [15, 18]?
A: 0

Q: And the “Plant response rating, S. Flatsedge” value [15, 19]?
A: 0
